Experiments:
[1] = Ligand reduction potential; format: physicochemical; settings: vs n.h.e., 298K, 0.1 M NBu4ClO4, MeCN
Source text: The quenching process with urate is believed to involve an intermediate exciplex, involving a short-lived bonding π-π interaction. This is disfavoured as the sensitising chromophore becomes less susceptible to accept electron density and is reflected in the ligand reduction potential. For compound (7), this was −1.52 V (vs n.h.e., 298K, 0.1 M NBu4ClO4, MeCN), which compares to −1.07 V for the cyclohexyl tetraazatriphenylene and −1.60 V for the 1-aza-xanthone (2). Terbium complexes of L^1 and L^2 resisted urate and ascorbate quenching more effectively than the comparator complexes.

human serum albumin = human serum albumin (Homo sapiens, UniProt P02768); assay: Emission lifetime in the presence of human serum albumin, urate and ascorbate; settings: 0.4 mM human serum albumin, 0.1 mM sodium urate, 0.2 mM ascorbate, pH 7.4, 298K, 0.1M HEPES
human serum albumin, sequence (P02768 25-609): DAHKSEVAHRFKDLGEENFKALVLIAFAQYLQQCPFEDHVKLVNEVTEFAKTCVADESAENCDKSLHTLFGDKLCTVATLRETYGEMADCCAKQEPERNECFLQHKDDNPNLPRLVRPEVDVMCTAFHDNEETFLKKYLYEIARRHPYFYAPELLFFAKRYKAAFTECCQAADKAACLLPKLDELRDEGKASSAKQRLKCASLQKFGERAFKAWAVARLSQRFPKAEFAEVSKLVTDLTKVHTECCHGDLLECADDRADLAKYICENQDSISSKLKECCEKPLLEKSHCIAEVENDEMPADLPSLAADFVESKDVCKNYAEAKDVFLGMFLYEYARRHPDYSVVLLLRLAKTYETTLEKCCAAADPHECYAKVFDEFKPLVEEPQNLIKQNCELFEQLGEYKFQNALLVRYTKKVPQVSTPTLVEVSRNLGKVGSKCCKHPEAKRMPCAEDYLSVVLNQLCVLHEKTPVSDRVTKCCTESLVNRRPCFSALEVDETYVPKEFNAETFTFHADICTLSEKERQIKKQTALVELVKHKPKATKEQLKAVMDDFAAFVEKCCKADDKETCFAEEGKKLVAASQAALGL
Protocol: In the presence of 0.4 mM human serum albumin, 0.1 mM sodium urate and 0.2 mM ascorbate, (pH 7.4, 298K, 0.1M HEPES), the emission lifetime of [TbL^2]^3+ was within 10% of its value in water, i.e. 2.1 ms, compared to 0.7 ms and 0.5 ms for [TbL^6]^3+ and [TbL^4]^3+ respectively under the same conditions.

[2] = Stern-Volmer excited state quenching by ascorbate; format: physicochemical; settings: pH 7.4, 0.1 M HEPES, 298K
Source text: (§1) A key issue in assessing the utility of such luminescent complexes for intracellular application is their sensitivity towards quenching by endogenous electron-rich species (e.g. urate/ascorbate) either when the complexes are free or protein bound. Accordingly, the Stern-Volmer quenching constants (KSv^−1/mM) defining their relative sensitivity to quenching can be assessed comparatively, (Table 2).

[3] = Stern-Volmer excited state quenching by urate; format: physicochemical; settings: pH 7.4, 0.1 M HEPES, 298K
Source text: as §1

[4] = Triplet energy measured on Gd analogues in frozen glass (77K); format: physicochemical; settings: Gd analogues in frozen glass of Et2O/isopentane/ethanol or EtOH/MeOH (2:1)
[5] = Stern-Volmer excited state quenching by iodide; format: physicochemical; settings: pH 7.4, 0.1 M HEPES, 298K
Source text: as §1

Emission quantum yield = format: physicochemical; settings: quantum yields ±15%
Source text: (§2) Absorption, emission and triplet energy data for these complexes are collated in Table 1.

[6] = Absorption spectrum of Tb(III) complexes; format: physicochemical; settings: for γmax: absorption, Tb(III) complexes; for ε: molar extinction coefficient
Source text: as §2
The absorption spectrum of [TbL^1]

[7] = Terbium emission lifetime / decay rate constants in H2O and D2O; format: physicochemical; settings: lifetime ±10%
Source text: as §2

[8] = system: Chinese hamster ovarian cells; settings: observed previously under the same standard conditions; cited from earlier work
[9] = first of two columns headed kD2O^Tb
[10] = second of two columns headed kD2O^Tb

Compound	ligand reduction potential [1]	emission lifetime (human serum albumin)	Ksv^−1 ascorbate [2]	Ksv^−1 (urate) [3]	ET^Gd [4]	Ksv^−1 (I^−) [5]	nem^Tb (H2O) (Emission quantum yield)	γmax [6]	ε [6]	kD2O^Tb [7, 9]	kD2O^Tb [7, 10]	nuclear localisation [8]
CC(C)(C)c1ccc2oc3cccnc3c(=O)c2c1 [Compound 2, 7-Tert-Butyl-1-Azaxanthone]	−1.60 V	–	–	–	–	–	–	–	–	–	–	–
Cc1ccn(-c2ccc3c(=O)c4cc(C(C)(C)C)ccc4oc3n2)n1 [Compound 7, 7-Tert-Butyl-2-(N-3′-Methylpyrazole)-1-Azaxanthone]	−1.52 V	–	–	–	–	–	–	–	–	–	–	–
cyclohexyl tetraazatriphenylene [reference compound]	−1.07 V	–	–	–	–	–	–	–	–	–	–	–

Now from value to compound, other results behind:

ligand reduction potential [1]	emission lifetime (human serum albumin)	Ksv^−1 ascorbate [2]	Ksv^−1 (urate) [3]	ET^Gd [4]	Ksv^−1 (I^−) [5]	nem^Tb (H2O) (Emission quantum yield)	γmax [6]	ε [6]	kD2O^Tb [7, 9]	kD2O^Tb [7, 10]	Compound	nuclear localisation [8]
–	0.5 ms	0.37 mM	0.04 mM	24,800 cm^−1	9.2 mM	37%	335 nm	6,900 M^−1 cm^−1	610 s⁻¹	350 s⁻¹	CC(NC(=O)CN1CCN(CC(=O)NC(C)c2ccccc2)CCN(Cc2ccc3c(=O)c4cc(C(C)(C)C)ccc4oc3n2)CCN(CC(=O)NC(C)c2ccccc2)CC1)c1ccccc1.[Tb+3] (stereo not shown) [[TbL^4]^3+]	tendency for nuclear localisation
–	0.7 ms	–	–	23,800 cm^−1	–	40%	348 nm	8,300 M^−1 cm^−1	640 s⁻¹	580 s⁻¹	CC(NC(=O)CN1CCN(CC(=O)NC(C)c2ccccc2)CCN(Cc2ccc3c(n2)c2ncccc2c2nc4c(nc32)CCCC4)CCN(CC(=O)NC(C)c2ccccc2)CC1)c1ccccc1.[Tb+3] (stereo not shown) [[TbL^6]^3+]	tendency for nuclear localisation

From patent publication US20100204467A1, “LANTHANIDE (III) ION COMPLEXING COMPOUNDS, LUMINESCENT LANTHANIDE (III) ION COMPLEXES AND USE THEREOF AS FLUORESCENT LABELS” (CIS BIO INTERNATIONAL, priority 2007, published 2010)
